Reference: ChEMBL document CHEMBL3046339, “Insecticidal activity of Maytenus species (Celastraceae) nortriterpene quinone methides against codling moth, Cydia pomonella (L.) (Lepidoptera: tortricidae)” (2000)

What was measured:
Format in all cases: functional
[1] = test system: Cydia pomonella; assay: Insecticidal activity against Cydia pomonella (codling moth) at 20 mg/kg assessed as growth regulation measured as number of head capsules of larvae after 10 days of continuous exposure (reference value: 1.3 +/- 0.3%)
[2] = test system: Cydia pomonella; assay: Insecticidal activity against Cydia pomonella (codling moth) at 2 mg/kg assessed as growth regulation measured as number of head capsules of larvae after 10 days of continuous exposure (reference value: 1.3 +/- 0.3%)
[3] = test system: Cydia pomonella; assay: Insecticidal activity against Cydia pomonella (codling moth) at 2 mg/kg assessed as growth regulation measured as number of head capsules of larvae after 5 days of continuous exposure (reference value: 0.3 +/- 0.3%)
[4] = test system: Cydia pomonella; assay: Insecticidal activity against Cydia pomonella (codling moth) at 20 mg/kg assessed as growth regulation measured as number of head capsules of larvae after 5 days of continuous exposure (reference value: 0.3 +/- 0.3%)
[5] = test system: Cydia pomonella; assay: Antifeedant activity against Cydia pomonella (codling moth) at 20 mg/kg diet topically measured after 10 days of continuous exposure (reference value: 30 +/-20.9%)
[6] = test system: Cydia pomonella; assay: Antifeedant activity against Cydia pomonella (codling moth) at 2 mg/kg diet topically measured after 10 days of continuous exposure (reference value: 30 +/-20.9%)
[7] = test system: Cydia pomonella; assay: Antifeedant activity against Cydia pomonella (codling moth) at 20 mg/kg diet topically measured after 5 days of continuous exposure (reference value: 30 +/-20.9%)
[8] = test system: Cydia pomonella; assay: Antifeedant activity against Cydia pomonella (codling moth) at 2 mg/kg diet topically measured after 5 days of continuous exposure (reference value: 30 +/-20.9%)
[9] = test system: Cydia pomonella; assay: Insecticidal activity against Cydia pomonella (codling moth) assessed as mortality at 2 mg/kg diet topically measured after 10 days of continuous exposure (reference value: 43.3 +/- 26%); conditions: topical, 240 h
[10] = test system: Cydia pomonella; assay: Insecticidal activity against Cydia pomonella (codling moth) assessed as mortality at 20 mg/kg diet topically measured after 10 days of continuous exposure (reference value: 43.3 +/- 26%); conditions: topical, 240 h
[11] = test system: Cydia pomonella; assay: Insecticidal activity against Cydia pomonella (codling moth) assessed as mortality at 20 mg/kg diet topically measured after 5 days of continuous exposure (reference value: 23.3 +/- 18.5%); conditions: topical, 120 h
[12] = test system: Cydia pomonella; assay: Insecticidal activity against Cydia pomonella (codling moth) assessed as mortality at 2 mg/kg diet topically measured after 5 days of continuous exposure (reference value: 23.3 +/- 18.5%); conditions: topical, 120 h
[13] = test system: Cydia pomonella; assay: Insecticidal activity against Cydia pomonella (codling moth) at 80 mg/kg assessed as growth regulation measured as number of head capsules of larvae after 10 days of continuous exposure Rvb = (1.5 +/- 0.2%)
[14] = test system: Cydia pomonella; assay: Insecticidal activity against Cydia pomonella (codling moth) at 20 mg/kg assessed as growth regulation measured as number of head capsules of larvae after 10 days of continuous exposure Rvb = (1.5 +/- 0.2%)
[15] = test system: Cydia pomonella; assay: Insecticidal activity against Cydia pomonella (codling moth) at 40 mg/kg assessed as growth regulation measured as number of head capsules of larvae after 10 days of continuous exposure Rvb = (1.5 +/- 0.2%)
[16] = test system: Cydia pomonella; assay: Antifeedant activity against Cydia pomonella (codling moth) at 80 mg/kg diet topically measured after 10 days of continuous exposure (reference value: 6.7 +/- 6.7%)
[17] = test system: Cydia pomonella; assay: Antifeedant activity against Cydia pomonella (codling moth) at 40 mg/kg diet topically measured after 10 days of continuous exposure (reference value: 6.7 +/- 6.7%)
[18] = test system: Cydia pomonella; assay: Antifeedant activity against Cydia pomonella (codling moth) at 20 mg/kg diet topically measured after 10 days of continuous exposure (reference value: 6.7 +/- 6.7%)
[19] = test system: Cydia pomonella; assay: Antifeedant activity against Cydia pomonella (codling moth) at 80 mg/kg diet topically measured after 5 days of continuous exposure (reference value: 6.7 +/- 6.7%)
[20] = test system: Cydia pomonella; assay: Antifeedant activity against Cydia pomonella (codling moth) at 40 mg/kg diet topically measured after 5 days of continuous exposure (reference value: 6.7 +/- 6.7%)
[21] = test system: Cydia pomonella; assay: Antifeedant activity against Cydia pomonella (codling moth) at 20 mg/kg diet topically measured after 5 days of continuous exposure (reference value: 6.7 +/- 6.7%)
[22] = test system: Cydia pomonella; assay: Insecticidal activity against Cydia pomonella (codling moth) assessed as mortality at 80 mg/kg diet topically measured after 10 days of continuous exposure (reference value: 3.3 +/- 3.3%); conditions: topical, 240 h
[23] = test system: Cydia pomonella; assay: Insecticidal activity against Cydia pomonella (codling moth) assessed as mortality at 20 mg/kg diet topically measured after 10 days of continuous exposure (reference value: 3.3 +/- 3.3%); conditions: topical, 240 h
[24] = test system: Cydia pomonella; assay: Insecticidal activity against Cydia pomonella (codling moth) assessed as mortality at 40 mg/kg diet topically measured after 10 days of continuous exposure (reference value: 3.3 +/- 3.3%); conditions: topical, 240 h
[25] = test system: Cydia pomonella; assay: Insecticidal activity against Cydia pomonella (codling moth) at 40 mg/kg assessed as growth regulation measured as number of head capsules of larvae after 5 days of continuous exposure (reference value: 0.2 +/- 0.2%)
[26] = test system: Cydia pomonella; assay: Insecticidal activity against Cydia pomonella (codling moth) at 20 mg/kg assessed as growth regulation measured as number of head capsules of larvae after 5 days of continuous exposure (reference value: 0.2 +/- 0.2%)
[27] = test system: Cydia pomonella; assay: Insecticidal activity against Cydia pomonella (codling moth) assessed as mortality at 80 mg/kg diet topically measured after 5 days of continuous exposure (reference value: 0%); conditions: topical, 120 h
[28] = test system: Cydia pomonella; assay: Insecticidal activity against Cydia pomonella (codling moth) assessed as mortality at 40 mg/kg diet topically measured after 5 days of continuous exposure (reference value: 0%); conditions: topical, 120 h
[29] = test system: Cydia pomonella; assay: Insecticidal activity against Cydia pomonella (codling moth) assessed as mortality at 20 mg/kg diet topically measured after 5 days of continuous exposure (reference value: 0%); conditions: topical, 120 h
[30] = test system: Cydia pomonella; assay: Insecticidal activity against Cydia pomonella (codling moth) at 80 mg/kg assessed as growth regulation measured as number of head capsules of larvae after 5 days of continuous exposure (reference value: 0.2 +/- 0.2%)

Row | Compound | Activity [13] | Activity [14] | Activity [15] | Activity [16] | Activity [17] | Activity [18] | Activity [19] | Activity [20] | Activity [21] | mortality at 80 mg/kg [22] | mortality at 20 mg/kg [23] | mortality at 40 mg/kg [24] | Activity [25] | Activity [26] | mortality at 80 mg/kg [27] | mortality at 40 mg/kg [28] | mortality at 20 mg/kg [29] | Activity [30] | further results
1 | C/C=C(\C)C(=O)O[C@H]1C[C@@H](OC(C)=O)[C@@]2(C(=O)OC)CO[C@H]3[C@@H](O)[C@@](C)([C@]45O[C@@]4(C)[C@@H]4C[C@H]5O[C@@H]5OC=C[C@@]54O)[C@H]4[C@]1(CO[C@]4(O)C(=O)OC)[C@@H]32 [AZADIRACHTIN A] | – | – | – | – | – | – | – | – | – | – | – | – | – | – | – | – | – | – | Activity [1]: 0; Activity [2]: 0.3; Activity [3]: 0; Activity [4]: 0; Activity [5]: 100%; Activity [6]: 70%; Activity [7]: 100%; Activity [8]: 76.7%; mortality at 2 mg/kg [9]: 66.7%; mortality at 20 mg/kg [10]: 100%; mortality at 20 mg/kg [11]: 100%; mortality at 2 mg/kg [12]: 50%
2 | CC1=C(O)C(=O)C=C2C1=CC=C1[C@@]2(C)CC[C@@]2(C)[C@@H]3C[C@@H](C)C(=O)C[C@]3(C)CC[C@]12C [TINGENONE] | 0 | 3 | 1.4 | 93.3% | 3.3% | 0% | 100% | 10% | 0% | 23.3% | 0% | 10% | 0.3 | 0.7 | 13.3% | 3.3% | 0% | 0 | –
3 | COC(=O)[C@]1(C)CC[C@]2(C)CC[C@]3(C)C4=CC=C5C(=CC(=O)C(O)=C5C)[C@]4(C)CC[C@@]3(C)[C@@H]2C1 [PRISTIMERIN] | 0 | 0 | 0 | 90% | 83.3% | 93.3% | 90% | 83.3% | 96.7% | 100% | 60% | 60% | 0 | 0 | 90% | 33.3% | 20% | 0 | –
